{"source": "paper PMC4490784", "about": "“Compensatory induction of MYC expression by sustained CDK9 inhibition via a BRD4-dependent mechanism” (eLife, 2015)", "assay_in_all_cases": "KINOMEscan binding assay", "key": {"[1]": {"target": "T1, DRAK2 (Homo sapiens, UniProt O94768)", "T1 construct": "purchased DiscoveRx KINOMEscan", "conditions": "read-out: % Retention on Solid Support", "method_in_brief": "(§1)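 Kinome-wide competition binding assay (active site-directed), i-CDK9 tested at 1 µM and 10 µM, >400 targets.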"}, "[2]": {"target": "T2, NEK11 (Homo sapiens, UniProt Q8NG66)", "T2 construct": "purchased DiscoveRx KINOMEscan", "conditions": "1 µM i-CDK9; read-out: % Retention on Solid Support", "method_in_brief": "as §1"}, "[3]": {"target": "T3, CAMK2A (Homo sapiens, UniProt Q9UQM7)", "T3 construct": "purchased DiscoveRx KINOMEscan", "conditions": "read-out: % Retention on Solid Support", "method_in_brief": "as §1"}, "[4]": {"target": "T4, FGFR3(G697C) (Homo sapiens, UniProt P22607, G697C)", "T4 construct": "purchased DiscoveRx KINOMEscan", "T4 sequence (P22607 23-806 G697C)": "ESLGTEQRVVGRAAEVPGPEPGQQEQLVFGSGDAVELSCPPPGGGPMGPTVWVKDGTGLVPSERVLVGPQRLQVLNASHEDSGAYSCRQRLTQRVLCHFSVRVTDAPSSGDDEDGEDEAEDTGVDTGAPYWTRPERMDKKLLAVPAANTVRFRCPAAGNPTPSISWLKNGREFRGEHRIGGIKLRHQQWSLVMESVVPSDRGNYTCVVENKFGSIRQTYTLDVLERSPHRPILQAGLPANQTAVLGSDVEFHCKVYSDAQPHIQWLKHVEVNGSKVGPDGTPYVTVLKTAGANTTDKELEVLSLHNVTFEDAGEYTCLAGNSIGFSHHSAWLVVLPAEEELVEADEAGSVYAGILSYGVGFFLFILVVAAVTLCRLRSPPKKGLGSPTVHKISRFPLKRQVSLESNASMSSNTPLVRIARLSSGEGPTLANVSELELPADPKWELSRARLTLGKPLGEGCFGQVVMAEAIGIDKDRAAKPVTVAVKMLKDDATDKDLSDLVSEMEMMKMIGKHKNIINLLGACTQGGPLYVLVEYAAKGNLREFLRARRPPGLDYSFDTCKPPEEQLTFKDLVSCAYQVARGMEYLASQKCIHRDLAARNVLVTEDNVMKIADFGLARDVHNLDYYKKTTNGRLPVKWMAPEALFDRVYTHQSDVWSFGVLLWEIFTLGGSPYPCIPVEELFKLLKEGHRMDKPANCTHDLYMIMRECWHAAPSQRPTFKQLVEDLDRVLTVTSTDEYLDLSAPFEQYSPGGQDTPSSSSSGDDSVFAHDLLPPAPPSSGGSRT", "conditions": "read-out: % Retention on Solid Support", "method_in_brief": "as §1"}, "[5]": {"target": "T5, TRKA (Homo sapiens, UniProt P04629)", "T5 construct": "purchased DiscoveRx KINOMEscan", "conditions": "read-out: % Retention on Solid Support", "method_in_brief": "as §1"}, "[6]": {"target": "T6, AURKA (Homo sapiens, UniProt O14965)", "T6 construct": "purchased DiscoveRx KINOMEscan", "T6 sequence (O14965 1-403)": "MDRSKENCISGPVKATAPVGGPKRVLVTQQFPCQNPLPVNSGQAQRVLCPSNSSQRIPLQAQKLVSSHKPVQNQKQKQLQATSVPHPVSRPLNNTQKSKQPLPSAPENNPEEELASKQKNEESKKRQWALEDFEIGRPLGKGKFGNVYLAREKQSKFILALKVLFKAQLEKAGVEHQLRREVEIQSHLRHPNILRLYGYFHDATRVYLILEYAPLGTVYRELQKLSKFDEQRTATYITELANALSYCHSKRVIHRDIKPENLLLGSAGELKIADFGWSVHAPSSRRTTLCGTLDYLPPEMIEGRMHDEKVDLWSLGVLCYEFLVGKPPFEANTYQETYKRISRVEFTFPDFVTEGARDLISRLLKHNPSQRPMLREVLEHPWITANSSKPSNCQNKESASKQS", "conditions": "read-out: % Retention on Solid Support", "method_in_brief": "as §1"}, "[7]": {"target": "T7, SRMS (Homo sapiens, UniProt Q9H3Y6)", "T7 construct": "purchased DiscoveRx KINOMEscan", "conditions": "read-out: % Retention on Solid Support", "method_in_brief": "as §1"}, "[8]": {"target": "T8, NLK (Homo sapiens, UniProt Q9UBE8)", "T8 construct": "purchased DiscoveRx KINOMEscan", "conditions": "read-out: % Retention on Solid Support", "method_in_brief": "as §1"}, "[9]": {"target": "T9, AXL (Homo sapiens, UniProt P30530)", "T9 construct": "purchased DiscoveRx KINOMEscan", "T9 sequence (P30530 26-894)": "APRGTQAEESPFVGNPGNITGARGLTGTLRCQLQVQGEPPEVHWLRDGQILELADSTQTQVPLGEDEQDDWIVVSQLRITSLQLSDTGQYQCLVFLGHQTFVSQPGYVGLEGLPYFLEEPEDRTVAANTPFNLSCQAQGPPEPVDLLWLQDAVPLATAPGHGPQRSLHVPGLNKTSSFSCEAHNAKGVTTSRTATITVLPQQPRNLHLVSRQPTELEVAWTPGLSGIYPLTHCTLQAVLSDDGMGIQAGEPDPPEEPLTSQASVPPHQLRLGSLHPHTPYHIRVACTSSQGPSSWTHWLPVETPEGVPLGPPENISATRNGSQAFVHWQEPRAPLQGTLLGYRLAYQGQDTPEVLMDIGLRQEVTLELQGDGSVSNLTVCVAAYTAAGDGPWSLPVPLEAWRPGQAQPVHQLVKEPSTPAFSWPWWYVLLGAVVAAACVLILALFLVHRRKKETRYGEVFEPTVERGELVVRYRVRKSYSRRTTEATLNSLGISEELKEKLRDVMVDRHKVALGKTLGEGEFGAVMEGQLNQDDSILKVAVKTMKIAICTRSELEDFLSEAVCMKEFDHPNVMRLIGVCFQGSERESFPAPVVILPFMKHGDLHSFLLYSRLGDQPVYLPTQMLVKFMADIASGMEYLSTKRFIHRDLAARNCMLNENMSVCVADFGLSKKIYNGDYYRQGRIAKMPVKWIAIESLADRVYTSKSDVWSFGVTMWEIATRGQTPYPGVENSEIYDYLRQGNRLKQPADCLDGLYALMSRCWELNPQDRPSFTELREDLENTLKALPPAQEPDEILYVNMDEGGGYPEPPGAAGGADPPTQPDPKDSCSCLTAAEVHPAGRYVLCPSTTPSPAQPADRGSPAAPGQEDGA", "conditions": "read-out: % Retention on Solid Support", "method_in_brief": "as §1"}, "[10]": {"target": "T10, CTK (Homo sapiens, UniProt P42679)", "T10 construct": "purchased DiscoveRx KINOMEscan", "conditions": "read-out: % Retention on Solid Support", "method_in_brief": "as §1"}, "[11]": {"target": "T11, MTOR (Homo sapiens, UniProt P42345)", "T11 construct": "purchased DiscoveRx KINOMEscan", "conditions": "1 µM i-CDK9; read-out: % Retention on Solid Support", "method_in_brief": "as §1"}, "[12]": {"target": "T12, NEK9 (Homo sapiens, UniProt Q8TD19)", "T12 construct": "purchased DiscoveRx KINOMEscan", "conditions": "read-out: % Retention on Solid Support", "method_in_brief": "as §1"}, "[13]": {"target": "T13, MKNK1 (Homo sapiens, UniProt Q9BUB5)", "T13 construct": "purchased DiscoveRx KINOMEscan", "conditions": "read-out: % Retention on Solid Support", "method_in_brief": "as §1"}, "[14]": {"target": "T14, LATS2 (Homo sapiens, UniProt Q9NRM7)", "T14 construct": "purchased DiscoveRx KINOMEscan", "method_in_brief": "as §1"}, "[15]": {"target": "T15, CLK4 (Homo sapiens, UniProt Q9HAZ1)", "T15 construct": "purchased DiscoveRx KINOMEscan", "conditions": "read-out: % Retention on Solid Support", "method_in_brief": "as §1"}, "[16]": {"target": "T16, DDR1 (Homo sapiens, UniProt Q08345)", "T16 construct": "purchased DiscoveRx KINOMEscan", "T16 sequence (Q08345 19-913)": "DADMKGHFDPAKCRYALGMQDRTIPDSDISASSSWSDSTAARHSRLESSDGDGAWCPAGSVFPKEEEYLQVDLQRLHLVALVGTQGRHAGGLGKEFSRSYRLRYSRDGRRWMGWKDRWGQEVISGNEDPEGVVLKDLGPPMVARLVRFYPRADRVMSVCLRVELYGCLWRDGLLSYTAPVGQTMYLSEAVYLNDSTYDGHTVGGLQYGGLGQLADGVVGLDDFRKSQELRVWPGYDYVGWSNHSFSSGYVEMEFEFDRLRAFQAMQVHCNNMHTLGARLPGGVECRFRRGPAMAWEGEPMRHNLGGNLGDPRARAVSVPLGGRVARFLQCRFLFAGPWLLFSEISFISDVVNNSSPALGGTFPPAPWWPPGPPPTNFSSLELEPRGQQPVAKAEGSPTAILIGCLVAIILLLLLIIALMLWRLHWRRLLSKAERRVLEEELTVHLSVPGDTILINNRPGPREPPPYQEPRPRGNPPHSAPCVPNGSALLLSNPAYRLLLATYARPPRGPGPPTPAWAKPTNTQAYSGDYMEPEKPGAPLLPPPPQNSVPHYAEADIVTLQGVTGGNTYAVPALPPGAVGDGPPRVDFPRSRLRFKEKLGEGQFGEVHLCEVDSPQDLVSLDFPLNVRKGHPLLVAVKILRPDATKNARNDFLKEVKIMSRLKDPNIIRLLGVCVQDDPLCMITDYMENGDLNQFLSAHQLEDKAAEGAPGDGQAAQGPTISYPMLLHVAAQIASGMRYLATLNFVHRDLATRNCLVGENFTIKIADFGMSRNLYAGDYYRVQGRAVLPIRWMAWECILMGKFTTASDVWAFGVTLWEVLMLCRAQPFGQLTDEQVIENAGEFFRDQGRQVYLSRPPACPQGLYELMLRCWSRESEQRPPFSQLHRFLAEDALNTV", "conditions": "read-out: % Retention on Solid Support", "method_in_brief": "as §1"}, "[17]": {"target": "T17, MAK (Homo sapiens, UniProt P20794)", "T17 construct": "purchased DiscoveRx KINOMEscan", "conditions": "read-out: % Retention on Solid Support", "method_in_brief": "as §1"}, "[18]": {"target": "T18, TIE1 (Homo sapiens, UniProt P35590)", "T18 construct": "purchased DiscoveRx KINOMEscan", "T18 sequence (P35590 22-1138)": "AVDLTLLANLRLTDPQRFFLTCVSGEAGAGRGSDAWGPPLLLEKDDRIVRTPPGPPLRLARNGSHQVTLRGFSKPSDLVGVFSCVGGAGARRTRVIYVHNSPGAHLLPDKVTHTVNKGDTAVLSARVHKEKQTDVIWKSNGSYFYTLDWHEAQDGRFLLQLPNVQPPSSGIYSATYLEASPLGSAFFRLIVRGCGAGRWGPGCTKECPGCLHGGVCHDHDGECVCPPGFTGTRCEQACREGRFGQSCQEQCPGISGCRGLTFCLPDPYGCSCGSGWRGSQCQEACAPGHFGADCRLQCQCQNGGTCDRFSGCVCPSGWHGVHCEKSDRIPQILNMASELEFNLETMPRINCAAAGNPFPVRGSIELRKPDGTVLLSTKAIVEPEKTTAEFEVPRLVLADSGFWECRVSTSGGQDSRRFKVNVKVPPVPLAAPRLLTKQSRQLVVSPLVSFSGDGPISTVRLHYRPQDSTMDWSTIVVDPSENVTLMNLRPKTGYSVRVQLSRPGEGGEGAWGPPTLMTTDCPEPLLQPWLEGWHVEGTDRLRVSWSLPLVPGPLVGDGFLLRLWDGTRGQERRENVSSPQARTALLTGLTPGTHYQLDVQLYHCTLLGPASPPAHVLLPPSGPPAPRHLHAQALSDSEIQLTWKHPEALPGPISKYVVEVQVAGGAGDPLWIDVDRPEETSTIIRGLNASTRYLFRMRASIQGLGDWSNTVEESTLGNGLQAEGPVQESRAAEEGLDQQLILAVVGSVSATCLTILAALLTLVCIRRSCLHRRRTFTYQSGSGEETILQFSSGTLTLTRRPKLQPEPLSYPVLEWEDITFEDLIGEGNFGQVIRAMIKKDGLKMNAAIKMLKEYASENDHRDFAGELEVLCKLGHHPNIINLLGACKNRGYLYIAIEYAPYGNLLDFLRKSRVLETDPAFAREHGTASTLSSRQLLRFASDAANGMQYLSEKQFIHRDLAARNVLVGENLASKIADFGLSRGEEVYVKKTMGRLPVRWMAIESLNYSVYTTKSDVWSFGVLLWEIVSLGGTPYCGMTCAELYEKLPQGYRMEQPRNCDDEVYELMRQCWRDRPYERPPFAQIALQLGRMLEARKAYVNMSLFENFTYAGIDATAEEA", "conditions": "read-out: % Retention on Solid Support", "method_in_brief": "as §1"}, "[19]": {"target": "T19, CHEK1 (Homo sapiens, UniProt O14757)", "T19 construct": "purchased DiscoveRx KINOMEscan", "method_in_brief": "as §1"}, "[20]": {"target": "T20, PIK3CB (Homo sapiens, UniProt P42338)", "T20 construct": "purchased DiscoveRx KINOMEscan", "conditions": "read-out: % Retention on Solid Support", "method_in_brief": "as §1"}, "[21]": {"target": "T21, EGFR(L861Q) (Homo sapiens, UniProt P00533, L861Q)", "T21 construct": "purchased DiscoveRx KINOMEscan", "method_in_brief": "as §1"}, "[22]": {"target": "T22, FLT4 (Homo sapiens, UniProt P35916)", "T22 construct": "purchased DiscoveRx KINOMEscan", "conditions": "read-out: % Retention on Solid Support", "method_in_brief": "as §1"}, "[23]": {"target": "T23, MUSK (Homo sapiens, UniProt O15146)", "T23 construct": "purchased DiscoveRx KINOMEscan", "T23 sequence (O15146 24-869)": "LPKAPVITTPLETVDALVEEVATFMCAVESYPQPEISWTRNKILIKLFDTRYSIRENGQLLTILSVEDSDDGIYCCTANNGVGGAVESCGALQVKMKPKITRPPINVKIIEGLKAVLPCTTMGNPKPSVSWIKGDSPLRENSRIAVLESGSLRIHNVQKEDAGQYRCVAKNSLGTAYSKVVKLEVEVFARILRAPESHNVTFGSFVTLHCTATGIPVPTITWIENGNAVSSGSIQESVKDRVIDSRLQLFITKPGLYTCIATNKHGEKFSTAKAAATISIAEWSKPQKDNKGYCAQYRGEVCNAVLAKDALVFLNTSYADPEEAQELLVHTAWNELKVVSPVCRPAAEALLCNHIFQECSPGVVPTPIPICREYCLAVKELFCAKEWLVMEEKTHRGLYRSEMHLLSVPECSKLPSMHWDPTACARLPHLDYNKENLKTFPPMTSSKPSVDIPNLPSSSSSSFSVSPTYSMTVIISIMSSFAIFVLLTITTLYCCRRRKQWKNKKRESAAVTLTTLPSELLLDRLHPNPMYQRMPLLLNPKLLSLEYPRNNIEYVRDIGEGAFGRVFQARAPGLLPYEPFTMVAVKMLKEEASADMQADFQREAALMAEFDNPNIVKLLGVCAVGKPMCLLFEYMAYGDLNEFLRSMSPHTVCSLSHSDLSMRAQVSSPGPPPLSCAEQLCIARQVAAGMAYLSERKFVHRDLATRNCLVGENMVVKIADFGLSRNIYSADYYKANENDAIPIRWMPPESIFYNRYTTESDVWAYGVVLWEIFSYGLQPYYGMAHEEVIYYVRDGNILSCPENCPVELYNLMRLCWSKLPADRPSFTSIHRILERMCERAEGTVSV", "conditions": "read-out: % Retention on Solid Support", "method_in_brief": "as §1"}, "[24]": {"target": "T24, RIOK3 (Homo sapiens, UniProt O14730)", "T24 construct": "purchased DiscoveRx KINOMEscan", "T24 sequence (O14730 whole entry)": "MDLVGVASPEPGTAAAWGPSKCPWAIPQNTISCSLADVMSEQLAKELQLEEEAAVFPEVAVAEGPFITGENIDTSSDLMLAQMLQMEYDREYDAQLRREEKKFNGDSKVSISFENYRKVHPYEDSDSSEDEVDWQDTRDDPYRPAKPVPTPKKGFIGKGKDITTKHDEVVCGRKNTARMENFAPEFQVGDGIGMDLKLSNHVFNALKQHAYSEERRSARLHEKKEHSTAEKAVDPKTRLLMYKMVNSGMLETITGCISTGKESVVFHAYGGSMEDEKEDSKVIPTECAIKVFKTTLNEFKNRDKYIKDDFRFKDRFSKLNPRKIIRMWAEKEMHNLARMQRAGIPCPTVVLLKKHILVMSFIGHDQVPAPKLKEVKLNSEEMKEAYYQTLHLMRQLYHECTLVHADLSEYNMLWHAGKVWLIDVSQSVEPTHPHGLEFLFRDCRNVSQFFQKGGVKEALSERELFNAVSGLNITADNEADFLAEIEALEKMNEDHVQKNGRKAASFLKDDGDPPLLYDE", "conditions": "read-out: % Retention on Solid Support", "method_in_brief": "as §1"}, "[25]": {"target": "T25, RIPK5 (Homo sapiens, UniProt Q6XUX3)", "T25 construct": "purchased DiscoveRx KINOMEscan", "conditions": "1 µM i-CDK9; read-out: % Retention on Solid Support", "method_in_brief": "as §1"}, "[26]": {"target": "T26, EPHA8 (Homo sapiens, UniProt P29322)", "T26 construct": "purchased DiscoveRx KINOMEscan", "conditions": "read-out: % Retention on Solid Support", "method_in_brief": "as §1"}}, "data": [{"compound": "N[C@H]1CC[C@H](Nc2cc(-c3cccc(NCc4cccc(F)c4)n3)c(Cl)cn2)CC1", "note": "[i-CDK9, N2′-(trans-4-aminocyclohexyl)-5′-chloro-N6-(3-fluorobenzyl)-2,4′-bipyridine-2′,6-diamine]", "values": [{"measurement": "remaining binding at 1 µM", "setting": "[1]; 1 µM i-CDK9", "value": 82, "unit": "%"}, {"measurement": "remaining binding at 10 µM", "setting": "[1]; 10 µM i-CDK9", "value": 72, "unit": "%"}, {"measurement": "remaining binding at 1 µM", "setting": "[2]", "value": 100, "unit": "%"}, {"measurement": "remaining binding at 1 µM", "setting": "[3]; 1 µM i-CDK9", "value": 91, "unit": "%"}, {"measurement": "remaining binding at 10 µM", "setting": "[3]; 10 µM i-CDK9", "value": 81, "unit": "%"}, {"measurement": "remaining binding at 1 µM", "setting": "[4]; 1 µM i-CDK9", "value": 96, "unit": "%"}, {"measurement": "remaining binding at 10 µM", "setting": "[4]; 10 µM i-CDK9", "value": 100, "unit": "%"}, {"measurement": "remaining binding at 1 µM", "setting": "[5]; 1 µM i-CDK9", "value": 100, "unit": "%"}, {"measurement": "remaining binding at 10 µM", "setting": "[5]; 10 µM i-CDK9", "value": 89, "unit": "%"}, {"measurement": "remaining binding at 1 µM", "setting": "[6]; 1 µM i-CDK9", "value": 92, "unit": "%"}, {"measurement": "remaining binding at 10 µM", "setting": "[6]; 10 µM i-CDK9", "value": 97, "unit": "%"}, {"measurement": "remaining binding at 1 µM", "setting": "[7]; 1 µM i-CDK9", "value": 99, "unit": "%"}, {"measurement": "remaining binding at 10 µM", "setting": "[7]; 10 µM i-CDK9", "value": 80, "unit": "%"}, {"measurement": "remaining binding at 1 µM", "setting": "[8]; 1 µM i-CDK9", "value": 100, "unit": "%"}, {"measurement": "remaining binding at 10 µM", "setting": "[8]; 10 µM i-CDK9", "value": 91, "unit": "%"}, {"measurement": "remaining binding at 1 µM", "setting": "[9]; 1 µM i-CDK9", "value": 89, "unit": "%"}, {"measurement": "remaining binding at 10 µM", "setting": "[9]; 10 µM i-CDK9", "value": 80, "unit": "%"}, {"measurement": "remaining binding at 1 µM", "setting": "[10]; 1 µM i-CDK9", "value": 75, "unit": "%"}, {"measurement": "remaining binding at 10 µM", "setting": "[10]; 10 µM i-CDK9", "value": 100, "unit": "%"}, {"measurement": "remaining binding at 1 µM", "setting": "[11]", "value": 100, "unit": "%"}, {"measurement": "remaining binding at 1 µM", "setting": "[12]; 1 µM i-CDK9", "value": 100, "unit": "%"}, {"measurement": "remaining binding at 10 µM", "setting": "[12]; 10 µM i-CDK9", "value": 100, "unit": "%"}, {"measurement": "remaining binding at 1 µM", "setting": "[13]; 1 µM i-CDK9", "value": 100, "unit": "%"}, {"measurement": "remaining binding at 10 µM", "setting": "[13]; 10 µM i-CDK9", "value": 100, "unit": "%"}, {"measurement": "% Retention on Solid Support", "setting": "[14]; 1 µM i-CDK9", "value": 100, "unit": "%"}, {"measurement": "% Retention on Solid Support", "setting": "[14]; 10 µM i-CDK9", "value": 100, "unit": "%"}, {"measurement": "remaining binding at 1 µM", "setting": "[15]; 1 µM i-CDK9", "value": 18, "unit": "%"}, {"measurement": "remaining binding at 10 µM", "setting": "[15]; 10 µM i-CDK9", "value": 4.2, "unit": "%"}, {"measurement": "remaining binding at 1 µM", "setting": "[16]; 1 µM i-CDK9", "value": 100, "unit": "%"}, {"measurement": "remaining binding at 10 µM", "setting": "[16]; 10 µM i-CDK9", "value": 92, "unit": "%"}, {"measurement": "remaining binding at 1 µM", "setting": "[17]; 1 µM i-CDK9", "value": 100, "unit": "%"}, {"measurement": "remaining binding at 10 µM", "setting": "[17]; 10 µM i-CDK9", "value": 30, "unit": "%"}, {"measurement": "remaining binding at 1 µM", "setting": "[18]; 1 µM i-CDK9", "value": 85, "unit": "%"}, {"measurement": "remaining binding at 10 µM", "setting": "[18]; 10 µM i-CDK9", "value": 100, "unit": "%"}, {"measurement": "% Retention on Solid Support", "setting": "[19]; 1 µM i-CDK9", "value": 100, "unit": "%"}, {"measurement": "% Retention on Solid Support", "setting": "[19]; 10 µM i-CDK9", "value": 82, "unit": "%"}, {"measurement": "remaining binding at 1 µM", "setting": "[20]; 1 µM i-CDK9", "value": 68, "unit": "%"}, {"measurement": "remaining binding at 10 µM", "setting": "[20]; 10 µM i-CDK9", "value": 84, "unit": "%"}, {"measurement": "% Retention on Solid Support", "setting": "[21]; 1 µM i-CDK9", "value": 78, "unit": "%"}, {"measurement": "% Retention on Solid Support", "setting": "[21]; 10 µM i-CDK9", "value": 74, "unit": "%"}, {"measurement": "remaining binding at 1 µM", "setting": "[22]; 1 µM i-CDK9", "value": 68, "unit": "%"}, {"measurement": "remaining binding at 10 µM", "setting": "[22]; 10 µM i-CDK9", "value": 72, "unit": "%"}, {"measurement": "remaining binding at 1 µM", "setting": "[23]; 1 µM i-CDK9", "value": 88, "unit": "%"}, {"measurement": "remaining binding at 10 µM", "setting": "[23]; 10 µM i-CDK9", "value": 100, "unit": "%"}, {"measurement": "remaining binding at 1 µM", "setting": "[24]; 1 µM i-CDK9", "value": 86, "unit": "%"}, {"measurement": "remaining binding at 10 µM", "setting": "[24]; 10 µM i-CDK9", "value": 73, "unit": "%"}, {"measurement": "remaining binding at 1 µM", "setting": "[25]", "value": 100, "unit": "%"}, {"measurement": "remaining binding at 1 µM", "setting": "[26]; 1 µM i-CDK9", "value": 100, "unit": "%"}, {"measurement": "remaining binding at 10 µM", "setting": "[26]; 10 µM i-CDK9", "value": 100, "unit": "%"}]}]}
